Active and inactive are the calls of the source.

From ChEMBL document CHEMBL1201862, “PubChem BioAssay data set” (2004) come the findings set out here.

The nature of assay [1]: Counterscreen for antagonists of the orexin 1 receptor (OX1R; HCRTR1): Fluorescence-based cell-based high throughput dose response assay to identify antagonists of the parental CHO cell line. [Related pubchem assays (depositor defined):AID434989, AID435008, AID463079, AID485270, AID492963, AID492964, AID492965, AID493232, AID504699, AID504701]. Format: functional. (In general: Counterscreens check selectivity or assay interference.)

Assay [2] has as its target T1, Rac GTPase-activating protein 1 (Homo sapiens, UniProt Q9H0H5).
T1 sequence (Q9H0H5 whole entry): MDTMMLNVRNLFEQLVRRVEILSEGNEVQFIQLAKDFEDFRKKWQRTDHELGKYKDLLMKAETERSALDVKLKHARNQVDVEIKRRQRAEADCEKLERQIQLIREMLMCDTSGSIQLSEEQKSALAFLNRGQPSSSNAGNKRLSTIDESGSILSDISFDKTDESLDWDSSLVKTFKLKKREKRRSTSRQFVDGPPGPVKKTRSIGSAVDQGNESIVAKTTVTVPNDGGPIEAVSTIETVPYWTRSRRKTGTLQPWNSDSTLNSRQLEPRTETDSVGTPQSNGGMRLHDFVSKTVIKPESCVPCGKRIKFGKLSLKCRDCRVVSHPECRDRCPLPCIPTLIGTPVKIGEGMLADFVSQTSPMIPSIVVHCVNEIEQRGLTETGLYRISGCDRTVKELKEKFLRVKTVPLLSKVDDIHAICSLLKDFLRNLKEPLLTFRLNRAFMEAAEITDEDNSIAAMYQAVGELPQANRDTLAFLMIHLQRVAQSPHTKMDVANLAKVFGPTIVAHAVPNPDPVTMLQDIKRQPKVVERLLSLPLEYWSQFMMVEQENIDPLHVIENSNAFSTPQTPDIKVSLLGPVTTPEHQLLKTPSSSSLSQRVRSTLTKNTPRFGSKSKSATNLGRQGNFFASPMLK
The experiment in a line: MgcRacGAP GTPase-activating activity inhibitors, confirmation, biochemical, ADP Hunter fluorescence, primary and confirmatory (AID 624330). Format: functional.

The target of assay [3] is T2, Caspase-6 (Homo sapiens, UniProt P55212).
T2 sequence (P55212 whole entry): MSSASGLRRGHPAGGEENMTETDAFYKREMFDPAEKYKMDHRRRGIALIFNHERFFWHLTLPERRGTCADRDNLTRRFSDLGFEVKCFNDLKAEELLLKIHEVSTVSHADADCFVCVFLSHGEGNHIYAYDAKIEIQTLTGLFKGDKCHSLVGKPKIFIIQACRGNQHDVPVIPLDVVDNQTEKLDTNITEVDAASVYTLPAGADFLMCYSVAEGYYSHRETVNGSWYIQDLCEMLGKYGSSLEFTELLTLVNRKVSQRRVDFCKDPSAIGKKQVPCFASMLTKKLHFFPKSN
The assay is described as follows: human caspase-6 inhibitors, dose response, biochemical, VEID-R110 fluorescence, cherry-pick (AID 720632).

In assay [4] the target is T3, Heat shock factor protein 1 (Mus musculus, UniProt P38532).
T3 sequence (P38532 whole entry): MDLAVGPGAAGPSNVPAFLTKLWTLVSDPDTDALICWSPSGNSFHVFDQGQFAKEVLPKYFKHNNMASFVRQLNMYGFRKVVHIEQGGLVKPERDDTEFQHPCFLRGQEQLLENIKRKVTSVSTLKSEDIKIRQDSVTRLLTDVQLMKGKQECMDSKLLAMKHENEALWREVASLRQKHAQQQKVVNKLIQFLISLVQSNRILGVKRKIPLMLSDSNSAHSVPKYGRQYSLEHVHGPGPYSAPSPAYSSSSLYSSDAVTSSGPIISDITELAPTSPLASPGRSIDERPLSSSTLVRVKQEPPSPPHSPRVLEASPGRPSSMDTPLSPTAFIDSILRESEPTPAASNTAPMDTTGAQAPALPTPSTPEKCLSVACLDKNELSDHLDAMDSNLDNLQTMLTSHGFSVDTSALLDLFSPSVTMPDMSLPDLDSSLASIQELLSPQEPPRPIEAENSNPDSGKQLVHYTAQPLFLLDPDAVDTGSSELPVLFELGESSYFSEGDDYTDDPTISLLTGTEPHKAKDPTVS
The experiment in a line: inhibition of MG132-induced HSE-luciferase signal, confirmation, cell-based, NIH3T3, luminescence, dose retest (AID 2382).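 Note: NIH3T3 fibroblasts with HSF1-driven luciferase reporter stressed by proteasome inhibitor MG132; luminescence from HSF1-driven luciferase expression after 8 hours of MG132 stress.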 Format: functional.

The nature of assay [5]: inhibitors of intracellular T. cruzi replication, confirmation, NIH3T3 host cells, beta-gal luminescence (AID 2044).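 Note: intracellular parasites grown in NIH/3T3 mouse fibroblasts as host cells; luminescent beta-galactosidase reporter signal from transgenic T. cruzi replicating inside host cells; inhibitors lower the luminescence signal.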 Format: functional, cell-based.
Assay [6] relates to HEK293. The experiment in a line: inhibitors of LMP1-driven NF-kB reporter, dose response, cell-based, HEK293, luciferase, cherry-pick (AID 588343). Format: functional. The conditions noted are these: Homo sapiens.
Assay [7] addresses Small ubiquitin-related modifier 1 (Homo sapiens, UniProt P63165). The assay is described as follows: inhibitors of SUMO1 partner interactions, dose response, biochemical, FRET (AID 624383). Format: functional. Conditions: read-out: IC50_Mean.
The subject of assay [8] is HEK293. The experiment in a line: Fluorescence-based counterscreen for potentiators or agonists of NPY-Y2: cell-based high-throughput dose response assay to identify inhibitors of cyclic nucleotide gated ion channel (CNGC) activity. In this assay, the parental HEK293 cell line transfected with a cyclic-nucleotide gated ion channel (CNGC)-based cAMP sensor is used to measure inhibition of isoproterenol-induced CNGC activity by test compound. Format: functional. The conditions noted are these: Homo sapiens.

In assay [9] the target is Heat shock 70 kDa protein 1A (Homo sapiens, UniProt P0DMV8). The experiment in a line: Hsp70 inhibitors, probe displacement, primary screen, biochemical, fluorescence polarization (AID 583). On the technique in general: Fluorescence polarisation rises when a labelled molecule tumbles more slowly, as on binding a larger partner.
Chain of Heat shock 70 kDa protein 1A (P0DMV8 whole entry): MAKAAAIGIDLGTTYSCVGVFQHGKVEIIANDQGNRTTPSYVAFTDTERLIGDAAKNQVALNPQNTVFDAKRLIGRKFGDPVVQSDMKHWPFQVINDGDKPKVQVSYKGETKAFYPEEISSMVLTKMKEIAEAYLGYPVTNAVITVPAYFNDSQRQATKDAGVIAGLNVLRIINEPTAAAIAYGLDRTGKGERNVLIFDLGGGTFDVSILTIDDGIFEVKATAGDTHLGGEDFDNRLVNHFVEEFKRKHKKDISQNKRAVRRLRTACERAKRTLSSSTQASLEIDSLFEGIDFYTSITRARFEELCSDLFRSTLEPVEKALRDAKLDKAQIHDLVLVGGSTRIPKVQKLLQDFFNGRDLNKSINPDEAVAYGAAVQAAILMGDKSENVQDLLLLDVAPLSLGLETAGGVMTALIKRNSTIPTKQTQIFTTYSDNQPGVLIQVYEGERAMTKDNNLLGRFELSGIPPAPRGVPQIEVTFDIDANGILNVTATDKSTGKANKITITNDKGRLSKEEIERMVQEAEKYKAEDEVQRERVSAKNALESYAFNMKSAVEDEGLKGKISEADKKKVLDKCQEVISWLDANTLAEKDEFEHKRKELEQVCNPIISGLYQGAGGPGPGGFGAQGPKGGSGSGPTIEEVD

Chain of Small ubiquitin-related modifier 1 (P63165 whole entry): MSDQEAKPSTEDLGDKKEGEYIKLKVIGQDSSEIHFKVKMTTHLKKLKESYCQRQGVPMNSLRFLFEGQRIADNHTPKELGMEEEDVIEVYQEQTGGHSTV

For the compound `Oc1ccc(NC(=S)N=Nc2c(O)[nH]c3ccccc23)cc1`, the IC50 was > 49.8 µM (inactive) in assay [1] and 21.5 µM (active) in assay [2].

Broadly, the AC50 is the concentration giving half of the maximal activity seen. As for `O=[N+]([O-])c1ccc(Sc2cccc[n+]2[O-])c2nonc12`, the half-maximal activity concentration (AC50) in assay [3] was 7.21 µM (active).

Broadly, the EC50 is the concentration needed to bring the measured effect to its halfway point. Turning to `CCCC(=O)NC(c1ccc(C(C)C)cc1)c1ccc2cccnc2c1O` (centres undefined), the EC50 in assay [4] is 1.63 µM (active); in assay [5] it was 0.227 µM (active). Besides, the AC50 in assay [6] was 5.04 µM (active).

For the compound `Oc1c(Cl)cc(Cl)c(Cl)c1Cc1c(O)c(Cl)cc(Cl)c1Cl` [HEXACHLOROPHENE], the IC50 is 38.9 µM (inactive) in assay [7] and 19.5 µM (active) in [9]. The 50% effective concentration (EC50) in assay [8] is > 11.8 µM (not active).
